According to PubChem BioAssay AID504528 (Sanford-Burnham Center for Chemical Genomics, 2011):
The source made the active and inactive calls.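 The calls were made as follows: active = mean IC50 of 20 µM or lower; inactive = the rest.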

Tested on: HEK-293T NF-kB-Luc cytotoxicity, resazurin fluorescence, 14 h
Test: cytotoxicity in HEK-293T NF-kB reporter cells, SAR follow-up, cytotoxicity control for B-cell antigen receptor NF-kB inhibitors (AID 504528)

| Structure (SMILES) | IC50 |
| --- | --- |
| CCOc1cccc(-c2nc(CSCC(=O)NC3CC3)c(C)o2)c1 | > 79 µM (inactive) |
| Cc1oc(-c2ccc(C(F)(F)F)cc2)nc1CSCC(=O)O | > 79 µM (inactive) |
| CCNC(=O)CCc1nc(-c2c(Cl)cccc2Cl)no1 | > 79 µM (inactive) |
| CC(C)(C)c1ccc(-c2noc(CCC(=O)NC3CCC3)n2)cc1 | > 79 µM (inactive) |
| CCc1ccc(-c2noc(CCC(=O)NC(C)CC)n2)cc1 (configuration not stated) | > 79 µM (inactive) |
| CC(C)(C)NC(=O)CCc1nc(-c2ccccc2)no1 | > 79 µM (inactive) |
| CCC(C)NC(=O)CCc1nc(-c2ccccc2)no1 (configuration not stated) | > 79 µM (inactive) |
| CCNC(=O)CCc1nc(-c2cccc(C)c2)no1 | > 79 µM (inactive) |
| Cc1ccc(-c2nc(CSCC(=O)NC3CC3)c(C)o2)cc1 | > 79 µM (inactive) |
| O=C(CCc1nc(-c2ccccc2)no1)NC1CC1 | > 79 µM (inactive) |
| CCc1ccc(-c2noc(CCC(=O)NC(C)(C)C)n2)cc1 | > 79 µM (inactive) |
| Cc1oc(-c2ccc(OC(F)(F)F)cc2)nc1CSCC(=O)O | > 79 µM (inactive) |
| CCOc1ccc(-c2nc(CSCC(=O)NC3CC3)c(-c3ccccc3)o2)cc1 | > 79 µM (inactive) |
| CCOc1ccc(-c2nc(CSCC(=O)N3CCOCC3)c(C)o2)cc1 | > 79 µM (inactive) |
| C#CCNC(=O)CSCc1nc(-c2ccc(OCC)cc2)oc1C | > 79 µM (inactive) |
| CC(C)c1ccc(-c2noc(CCC(=O)NC(C)(C)C)n2)cc1 | > 79 µM (inactive) |
| COc1cccc(-c2cc(=O)c3cc(NC(=O)c4ccccc4)ccc3[nH]2)c1 | 60.4 µM (inactive) |
| CCC(C)NC(=O)CCc1nc(-c2ccc(C(C)(C)C)cc2)no1 (configuration not stated) | > 79 µM (inactive) |
| CCOc1ccc(-c2nc(CSCC(=O)NC)c(C)o2)cc1 | > 79 µM (inactive) |

| Structure (SMILES) | IC50 |
| --- | --- |
| CCCCc1ccc(-c2noc(CCC(=O)NC(C)CC)n2)cc1 (configuration not stated) | > 79 µM (inactive) |
| CCCOc1ccc(-c2nc(CSCC(=O)NCc3ccco3)c(C)o2)cc1 | 59.8 µM (inactive) |
| CCNC(=O)CCc1nc(-c2ccc(CC)cc2)no1 | > 79 µM (inactive) |
| CCNC(=O)CCc1nc(-c2ccccc2Cl)no1 | > 79 µM (inactive) |
| CCOC(=O)CC(NC(=O)c1ccc(Br)cc1)c1ccc(F)c([N+](=O)[O-])c1 (configuration not stated) | > 79 µM (inactive) |
| CCOc1ccc(-c2nc(CSCC(=O)NC3CCC3)c(C)o2)cc1 | > 79 µM (inactive) |
| COc1cccc(-c2cc(=O)c3cc(NC(=O)c4ccc(N(C)C)cc4)ccc3[nH]2)c1 | 2.25 µM |
| CCCCc1ccc(-c2noc(CCC(=O)NCC)n2)cc1 | > 79 µM (inactive) |
| CCc1ccc(-c2noc(CCC(=O)NC)n2)cc1 | > 79 µM (inactive) |
| CCCOc1ccc(-c2nc(CSCC(=O)O)c(C)o2)cc1 | > 79 µM (inactive) |
| CCOc1ccccc1-c1nc(CSCC(=O)O)c(C)o1 | > 79 µM (inactive) |
| CCOc1ccc(-c2nc(CSCC(=O)N(C)C)c(C)o2)cc1 | > 79 µM (inactive) |
| CCOc1ccc(-c2nc(CSCC(N)=O)c(C)o2)cc1 | > 79 µM (inactive) |
| CCCCc1ccc(-c2noc(CCC(=O)NC)n2)cc1 | > 79 µM (inactive) |
| CCNC(=O)CCc1nc(-c2ccc(C(C)C)cc2)no1 | > 79 µM (inactive) |
| CNC(=O)CCc1nc(-c2ccc(C(C)C)cc2)no1 | > 79 µM (inactive) |
| Cc1oc(-c2ccc(C(F)(F)F)cc2)nc1CSCC(=O)NC1CC1 | > 79 µM (inactive) |
| CCCCc1ccc(-c2noc(CCC(=O)NC3CC3)n2)cc1 | > 79 µM (inactive) |
| CC(C)c1ccc(-c2noc(CCC(=O)NC3CC3)n2)cc1 | > 79 µM (inactive) |

| Structure (SMILES) | IC50 |
| --- | --- |
| CCNC(=O)CCc1nc(-c2ccccc2C)no1 | > 79 µM (inactive) |
| CCNC(=O)CCc1nc(-c2cccc(OC)c2)no1 | > 79 µM (inactive) |
| CCCCOc1ccc(-c2nc(CSCC(=O)NCc3ccco3)c(C)o2)cc1 | > 79 µM (inactive) |
| Cc1ccc(-c2nc(CSCC(=O)NCc3ccco3)c(C)o2)cc1 | > 79 µM (inactive) |
| CCc1ccc(-c2noc(CCC(=O)NC3CC3)n2)cc1 | > 79 µM (inactive) |
| CCCCc1ccc(-c2noc(CCC(=O)NC(C)(C)C)n2)cc1 | > 79 µM (inactive) |
| COc1ccc(C(=O)Nc2ccc3[nH]c(-c4cccc(OC)c4)cc(=O)c3c2)cc1 | > 79 µM (inactive) |
| Cc1oc(-c2ccc(OC(F)(F)F)cc2)nc1CSCC(=O)NC1CC1 | > 79 µM (inactive) |
| CC(C)Nc1ccc(C(CC(=O)O)NC(=O)c2ccccc2)cc1[N+](=O)[O-] (configuration not stated) | > 79 µM (inactive) |
| CCOc1ccc(-c2nc(CSCC(=O)NCC3CC3)c(C)o2)cc1 | > 79 µM (inactive) |
| CCCOc1ccc(-c2nc(CSCC(=O)NC3CC3)c(C)o2)cc1 | > 79 µM (inactive) |
| CCOc1ccccc1-c1nc(CSCC(=O)NC2CC2)c(C)o1 | > 79 µM (inactive) |
| CCC(C)NC(=O)CCc1nc(-c2ccc(C(C)C)cc2)no1 (configuration not stated) | > 79 µM (inactive) |
| CCCCOc1ccc(-c2nc(CSCC(=O)NC3CC3)c(C)o2)cc1 | > 79 µM (inactive) |
| CCCCOc1ccc(-c2nc(CSCC(=O)O)c(C)o2)cc1 | > 79 µM (inactive) |
| CCOc1ccc(-c2nc(CSCC(=O)O)c(C)o2)cc1 | > 79 µM (inactive) |
| CCc1ccc(-c2nc(CSCC(=O)NC3CC3)c(-c3ccccc3)o2)cc1 | > 79 µM (inactive) |
| CCNC(=O)CCc1nc(-c2cccc(F)c2)no1 | > 79 µM (inactive) |
| CCOc1ccc(-c2nc(CSCC(=O)NC(C)(C)C)c(C)o2)cc1 | > 79 µM (inactive) |
